As a reminder, the IC50 is the concentration needed to halve the response being measured. High values mean lower potency, low ones higher potency. As usually defined, the EC50 is the concentration that produces a half-maximal response. Higher therefore signals weaker potency.

In test [1] the target is T1, MAPKAPK5 (Homo sapiens, UniProt Q8IW41).
T1 construct: 1 mU MAPKAP-K5
T1 sequence (Q8IW41 1-473): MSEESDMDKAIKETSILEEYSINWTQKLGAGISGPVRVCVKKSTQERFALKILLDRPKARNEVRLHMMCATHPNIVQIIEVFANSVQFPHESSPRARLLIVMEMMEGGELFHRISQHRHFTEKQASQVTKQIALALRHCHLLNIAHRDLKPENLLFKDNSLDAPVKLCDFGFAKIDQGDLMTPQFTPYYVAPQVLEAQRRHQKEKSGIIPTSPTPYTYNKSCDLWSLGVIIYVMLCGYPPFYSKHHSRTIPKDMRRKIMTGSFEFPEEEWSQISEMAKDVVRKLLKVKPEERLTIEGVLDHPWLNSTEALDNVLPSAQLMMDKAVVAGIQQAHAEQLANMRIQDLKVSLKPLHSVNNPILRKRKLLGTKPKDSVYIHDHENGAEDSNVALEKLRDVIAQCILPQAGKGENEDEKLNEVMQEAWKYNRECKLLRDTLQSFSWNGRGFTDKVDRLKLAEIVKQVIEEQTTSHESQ
In words: MAPKAP-K5 assay (FlashPlate, 33P-ATP). The settings on record: 0.6 μM ATP, 30 minutes at room temperature. In kind it is biochemical. Here is the method:
3 μM MAPKAP-K5 peptide substrate

Test [2] deals with TNFα release by human PBMCs. In words: Cytokine release by LPS-stimulated human PBMCs (TNFα ELISA). The test is classed as cell-based. The conditions noted are these: PBMC, LPS 1 μg/mL, 24 hr. The essentials: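 Human PBMCs at 2.5E6 cells/mL preincubated 1 h with compound (0.2% DMSO final), then stimulated with 1 μg/mL LPS (E. coli 026:B6) for 24 h. Supernatant TNFα measured by chemiluminescent sandwich ELISA; percent inhibition normalised to LPS/vehicle and unstimulated controls, EC50 fitted from 8-point 1/3 dilutions.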

Bounds are passed on as bounds.

In test [1], `O=C(NCCc1cccnc1)c1ccc(Nc2ncc(-c3cn[nH]c3)n3ccnc23)cc1` [Compound 93] gave an IC50 of 101 to 500 nM. The compound also displayed a concentration for a half-maximal effect (EC50) in test [2] greater than 1000 nM.
For `C[C@@H]1CN(c2ccc(Nc3ncc(-c4cc(F)c(C(N)=O)c(F)c4)n4ccnc34)cc2)[C@@H](C)CN1C` [Compound 181] the same measures were 101 to 500 nM and greater than 1000 nM.
For the compound `NC(=O)c1c(F)cc(-c2cnc(Nc3ccc(N4CCOCC4)cc3)c3nccn23)cc1F` [Compound 165], the IC50 in test [1] was greater than 1000 nM. In test [2], this compound showed an EC50 greater than 1000 nM.

For the origin of these results see patent US8178530B2, “Imidazolopyrazine compounds useful for the treatment of degenerative and inflammatory diseases” (Janssen Pharmaceutica NV, priority 2006, dated 2012).
